What all share (assay): growth of human tumour cells (NCI), 48 h
In experiment [1] the test system is HOP-62 NSCLC.
The test system of experiment [2] is SF-539 CNS.
The test system of experiment [3] is SW-620 colon.
The test system of experiment [4] is MDA-MB-231 breast.
In experiment [5] the test system is OVCAR-8 ovarian.
Experiment [6] deals with A498 renal.
In experiment [7] the test system is HOP-92 NSCLC.
The subject of experiment [8] is MCF7 breast.

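These data come from cells grown in 96-well plates and exposed to compound for 48 hours at five concentrations. GI50 = concentration required for 50% inhibition of growth. The concentration for full growth arrest is given as TGI.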

For `N#C/C(=C\c1ccc(O)c(O)c1)C(=O)NCc1cccc(C(F)(F)F)c1`, the GI50 in experiment [1] was 13.4 µM; in experiment [2], 3.51 µM; in experiment [3], 9.33 µM; in experiment [4], 5.82 µM; in experiment [5] it was 10.2 µM; in experiment [6], 10.4 µM. Further, the GI50 in experiment [7] is 3.2 µM; in experiment [8], 19.8 µM. The TGI in experiment [1] is 42.2 µM; in experiment [2], 17 µM; in experiment [3] it was 31.3 µM; in experiment [4], 29 µM; in experiment [5], 62.2 µM; in experiment [6] it was 26.9 µM. For the same compound, the TGI in experiment [7] is 26.8 µM; in experiment [8], more than 100 µM.
With `COc1cc(C2C=C(C)N=C3SC=C(C)N32)cc(OC)c1OC` (centres undefined), the GI50 in experiment [1] is 2.08 µM; in experiment [2], 0.353 µM; in experiment [3], 0.516 µM; in experiment [4], 1.5 µM; in experiment [5], 0.342 µM; in experiment [6], 2.39 µM. Further, the GI50 in experiment [7] is 2.08 µM; in experiment [8], 0.333 µM. The TGI was found to be 4.53 µM in experiment [1]; 4.6 µM in experiment [2]; 9.43 µM in experiment [3]; 9.26 µM in experiment [4]; 10.1 µM in experiment [5]; 5.64 µM in experiment [6]. The TGI in experiment [7] was determined as 5.95 µM; in experiment [8], 11.9 µM.
In the case of `CCN(CC)CCOc1ccc2c(-c3ccccc3)c(-c3ccc(OC)cc3)c(=O)oc2c1`, the GI50 in experiment [1] was 4.47 µM; in experiment [2], 5.48 µM; in experiment [3], 2.14 µM; in experiment [4], 4.91 µM; in experiment [5] it was 13.1 µM; in experiment [6], 3.13 µM. Further, the GI50 in experiment [7] is 2.47 µM; in experiment [8], 4.33 µM. For the same compound, the TGI was 16.8 µM in experiment [1]; 19.1 µM in experiment [2]; 5.76 µM in experiment [3]; 17.5 µM in experiment [4]; 29.1 µM in experiment [5]; 16.4 µM in experiment [6]. Moreover, the TGI in experiment [7] was 10.7 µM; in experiment [8] it was 14.1 µM.
Consider `CCN(CC)Cc1cc(Nc2ccnc3ccc(OC)cc23)ccc1O`, for which the GI50 in experiment [1] is 3.8 µM; in experiment [2] it was 2.17 µM; in experiment [3] it was 3.6 µM; in experiment [4] it was 4.76 µM; in experiment [5], 7.21 µM; in experiment [6], 2.75 µM. Also, the GI50 in experiment [7] was 2.04 µM; in experiment [8] it was 2.71 µM. Moreover, the TGI in experiment [1] amounted to 18.4 µM; in experiment [2] it was 4.84 µM; in experiment [3], 19.7 µM; in experiment [4] it was 31.2 µM; in experiment [5] it was 34.5 µM; in experiment [6], 12.5 µM. Also, the TGI stood at 7.13 µM in experiment [7] and 9.62 µM in experiment [8].
In the case of `N=C1C(c2nc3ccccc3c(=O)[nH]2)=C(O)CN1c1cccc(Cl)c1`, the GI50 in experiment [1] is 4.7 µM; in experiment [2] it was 3.51 µM; in experiment [3], 3.28 µM; in experiment [4], more than 100 µM; in experiment [5] it was 5.35 µM; in experiment [6] it was 1.9 µM. The GI50 in experiment [7] is more than 100 µM; in experiment [8] it was 4.19 µM. The TGI in experiment [1] is more than 100 µM; in experiment [2], 24.8 µM; in experiment [3], more than 100 µM; in experiment [4], more than 100 µM; in experiment [5], more than 100 µM; in experiment [6] it was 17.1 µM. The TGI in experiment [7] and in experiment [8] was more than 100 µM each time.
Consider `C=CCc1cc(O)ccc1O`, for which the GI50 in experiment [1] is 29.8 µM; in experiment [2] it was 14.2 µM; in experiment [3], 21.6 µM; in experiment [4], 14.1 µM; in experiment [5] it was 28.7 µM; in experiment [6], more than 100 µM. Moreover, the figures for the GI50 in experiment [7] and in experiment [8] were 42.4 µM and 44.3 µM, respectively. Further, the TGI in experiment [1] is more than 100 µM; in experiment [2] it was 70.2 µM; in experiment [3], 44.8 µM; in experiment [4], more than 100 µM; in experiment [5], more than 100 µM; in experiment [6], more than 100 µM. Moreover, the TGI in experiment [7] and in experiment [8] was more than 100 µM each time.
As for `O=C(Nc1nc2ccc(OC(F)(F)F)cc2s1)c1ccc(F)cc1`, the GI50 is 3.81 µM in experiment [1]; 2.26 µM in experiment [2]; 3.74 µM in experiment [3]; 3.3 µM in experiment [4]; 4.22 µM in experiment [5]; 2.93 µM in experiment [6]. The GI50 in experiment [7] was 3.91 µM; in experiment [8], 2.12 µM. Further, the TGI is 26.9 µM in experiment [1]; 6.95 µM in experiment [2]; more than 100 µM in experiment [3]; 18.9 µM in experiment [4]; more than 100 µM in experiment [5]; 9.2 µM in experiment [6]. For the same compound, the values for the TGI in experiment [7] and in experiment [8] were 8.35 µM and 18.2 µM, respectively.
In the case of `COc1ccc(/C=C/C(=O)C(=O)/C=C/c2ccc(OC)c(OC)c2)cc1OC`, the GI50 in experiment [1] was 6.8 µM; in experiment [2], 2.13 µM; in experiment [3] it was 1.08 µM; in experiment [4], 2.25 µM; in experiment [5], 2.97 µM; in experiment [6], 2.26 µM. Moreover, the GI50 in experiment [7] is 15.1 µM; in experiment [8] it was 0.516 µM. The TGI in experiment [1] is more than 100 µM; in experiment [2], 5.16 µM; in experiment [3] it was 3.31 µM; in experiment [4], 6 µM; in experiment [5], more than 100 µM; in experiment [6], 19.9 µM. The values for the TGI in experiment [7] and in experiment [8] were 82.8 µM and 9.48 µM, respectively.
Consider `CN1CCC(=C(c2ccc(Cl)cc2)c2ccccn2)CC1`, for which the GI50 in experiment [1] was more than 100 µM; in experiment [2] it was 85.1 µM; in experiment [3], more than 100 µM; in experiment [4] it was 34.5 µM; in experiment [5] it was more than 100 µM; in experiment [6], 45.8 µM. Moreover, the GI50 was 16.7 µM in experiment [7] and more than 100 µM in experiment [8]. Also, the TGI in experiment [1], in experiment [2], in experiment [3], in experiment [4], in experiment [5] and in experiment [6] was more than 100 µM each time. In addition, the TGI in experiment [7] and in experiment [8] was more than 100 µM in each case.

Values taken from PubChem BioAssay (NCI).
